Publication PMC9917735, “Optimization of the Hemolysis Assay for the Assessment of Cytotoxicity” (International Journal of Molecular Sciences, 2023)
Where two headings read alike, the source gives them in different places.

Columns and labels:
[1] = test system: washed human erythrocytes; test: Hemolysis assay, washed human erythrocytes; conditions: peptides 100 μM, 60 min 37 °C, pos. 10% Triton X-100, neg. PBS, 3 x 2 replicates
Description: (§1) Blood is drawn from a human or an animal, and next, the washed erythrocytes are incubated together with the compound or material under investigation. If the compound causes hemolysis, hemoglobin (along with other cellular constituents) will be released into the supernatant.
(§2) All blood was collected in Lithium Heparin tubes 4 mL (Greiner Bio-One, Kremsmünster, Austria) or Coagulation sodium citrate 3.2% tubes 3 mL (Greiner Bio-One).
(§3) These three peptides were synthesized by Genscript Inc. (Piscataway, NJ, USA), and stock solutions of 1 mg/mL were made from the purchased powders. […] All peptides were diluted to yield a 100 μM final concentration in the hemolysis assays.
(§4) Triton X-100 (T8787) and Tween-20 (P2287) detergents were purchased from Sigma Aldrich and diluted to obtain 10% stock solutions by weighing (w/v). A sodium Dodecyl Sulfate (SDS) 10% solution was purchased from Invitrogen (Waltham, MA, USA, 15553027). All subsequent dilutions annotated in figures were made from these stocks.
(§5) As soon as possible after phlebotomy, the blood samples were centrifuged at 1700× g for 5 min. The supernatant was removed by aspiration and 2 mL of PBS pH 7 was added. The washing step was repeated three times or until the supernatant was clear. After final aspiration, the remaining pellet was diluted 1:100 in PBS pH 7 to obtain a 1% erythrocyte suspension (or 1:100, 1:50, and 1:20 for assays testing the effect of erythrocyte concentration). For experiments using whole blood, the washing steps were not performed, but downstream experimentation was identical. For experiments performed with 96-well plates, 50 μL of test compound, water, or detergent were mixed with 50 μL of blood sample (1% erythrocyte suspension or whole blood). For experiments using larger volumes, 250 μL of test compound, water, or detergent were mixed with 250 μL blood sample in an Eppendorf tube. Samples were subsequently incubated at 37 °C for 60 min (or 15, 30, 60, 90, or 120 min for assays evaluating the effect of incubation time). After incubation, the plates/tubes were centrifuged at 1700× g for 5 min, and then 50 μL of the supernatants were transferred to transparent, flat-bottom 96-well plates (Anicrin, A013418). Finally, absorption was measured at 405, 530, and 570 nm in a Victor Nivo Multimode microplate reader (Perkin Elmer, Waltham, MA, USA).

[2] = previously well-characterized AMPs; ref [9],[33]; cited from earlier work
Description: OD measurements of human whole blood treated with hemolyzing agents or AMPs at 405 nm (A), 530 nm (B), and 570 nm (C) were recorded (Figure 6) and HRs calculated (Table 5). For comparison, we also included the two previously well-characterized AMPs melittin and polymyxin B, which exert high and low cytotoxicity, respectively. […] From 530 and 570 nm measurements, the expected conce ...

[3] = test system: human whole blood; conditions: human whole blood, 60 min 37 °C; for Calculated hemolysis ratio: peptides 100 μM, neg. PBS, 3 x 2 replicates
Description: as §1, §2, §3, §4, §5

Structure (SMILES): CC[C@H](C)[C@H](NC(=O)CN)C(=O)NCC(=O)N[C@@H](C)C(=O)N[C@H](C(=O)N[C@@H](CC(C)C)C(=O)N[C@@H](CCCCN)C(=O)N[C@H](C(=O)N[C@@H](CC(C)C)C(=O)N[C@H](C(=O)N[C@H](C(=O)NCC(=O)N[C@@H](CC(C)C)C(=O)N1CCC[C@H]1C(=O)N[C@@H](C)C(=O)N[C@@H](CC(C)C)C(=O)N[C@H](C(=O)N[C@@H](CO)C(=O)N[C@@H](Cc1c[nH]c2ccccc12)C(=O)N[C@H](C(=O)N[C@@H](CCCCN)C(=O)N[C@@H](CCCNC(=N)N)C(=O)N[C@@H](CCCCN)C(=O)N[C@@H](CCCNC(=N)N)C(=O)N[C@@H](CCC(N)=O)C(=O)N[C@@H](CCC(N)=O)C(N)=O)[C@@H](C)CC)[C@@H](C)CC)[C@@H](C)O)[C@@H](C)O)C(C)C)C(C)C [Melittin, reference compound]
- Calculated hemolysis ratio ([1]; 1% washed human erythrocytes, OD 530 nm): 78.4 ± 4.3%
- Calculated hemolysis ratio ([1]; 1% washed human erythrocytes, OD 570 nm): 79.8 ± 8.2%
- Calculated hemolysis ratio ([1]; Table 6: 1% washed human erythrocytes, OD 405 nm): 84.4 ± 8.1%
- Cytotoxicity (qualitative) [2]: high
- Blood clotting in whole blood ([3]; melittin 100 μM): clotting effect was also observed
- Calculated hemolysis ratio ([3]; OD 405 nm (signal saturated), pos. 10% SDS): 98.3 ± 1.4%
- Calculated hemolysis ratio ([3]; OD 530 nm, pos. 10% SDS): 36.6 ± 8.7%
- Calculated hemolysis ratio ([3]; OD 570 nm, pos. 10% Triton X-100 (table title; text says 10% SDS)): 54 ± 15.5%
